The values that follow come from patent EP0097567B1, “Use of polyethoxylated alkyl phenols as antiseborrheic agents” (SANOFI S.A., priority 1982, dated 1984).

Assay [1] has as its system lipogénèse sébacée. Kind of assay: Activity on sebaceous lipogenesis in vitro (incorporation of 14C-glucose into lipids of rat ear skin slices). It is filed as cell-based, rats mâles Sprague Dawley. The note with it: 4 h, pure products, read-out: Synthèse des lipides à partir de glucose (U-1^14C)Δ % témoin; for inhibition at 0.01 %: concentration 0,01 %; for inhibition at 0.001 %: concentration 0,001 %; for inhibition at 0.0025 %: concentration 0,0025 %; for inhibition at 0.005 %: concentration 0,005 %; for inhibition at 0.0005 %: concentration 0,0005 %. An excerpt: Après sacrifice au chloroforme de rats mâles Sprague Dawley, d'un poids moyen de 210 g, les oreilles sont découpées aux ciseaux suivant des repères anatomiques fixes, puis leur côté ventral est soigneusement rasé. Après fixation à l'aide de rubans adhésifs sur une plaque de verre, le côté ventral de l'oreille est prélivé à l'aide d'un kératotome de Castroviejo dont l'épaisseur de coupe est réglée sur 3 mm. Ce prélèvement est ensuite coupé en petits carrés de 1 mm^2 avec une lame de rasoir et pesé avant introduction dans le tube servant à l'incubation.
L'incubation se fait dans 1,5 ml de Krebs-Ringer tamponné à pH 7,4 (tampon phosphate Sôrensen 1/15 M) et contenant 100 U/ml de pénicilline, 1 mg/ml de Streptomycine et 2 mmol de glucose non radioactif. Le produit, à la concentration à étudier, est préalablement dissous dans du propylèneglycol (concentration finale égale à 0,5%), puis introduit dans le milieu d'incubation. Les tubes servant à l'incubation sont maintenus dans un bain de glace, jusqu'à ce que tous les prélèvements soient effectués, puis 7,4kBq de glucose U_^14C (74-148 MBq/mmol) sont ajoutés dans chaque tube.
Pour chaque rat utilisé, une des oreilles sert à tester le produit antiséborrhéique potentiel, alors que l'autre sert de témoin.
Après 4 heures d'incubation à 37°C, le milieu d'incubation est éliminé, puis l'incubat subit 4 lavages de 3 mins avec agitation à l'aide de glucose non radioactif (2 g/I). Une fois la dernière eau de lavage éliminée, 3 ml de potasse alcoolique N sont rajoutés dans chaque tube contenant les glandes sébacées de la peau d'oreille. Les tubes sont bouchés et portés à 70°C pendant une nuit.
Après ce temps, les tubes sont refroidis et 3 ml d'acide chlorhydrique 2N sont introduits dans chaque tube. Les lipides présents correspondant aux glandes sébacées de chaque oreille sont alors extraits par 2 fois 4 ml d'hexane après agitation de 5 min. Après séparation des phases aqueuse et hexanique, 3,25 ml d'hexane à la première extraction et 4 ml à la deuxième sont prélevés et réunis dans une fiole de comptage contenant 10 ml de liquide de mélange scintillant.
Les fioles, après bouchage et- agitation, sont introduites dans un compteur à scintillation liquide préréglé sur le canal ^14C. Le temps de comptage de chaque fiole est de 4 min. Pour chaque fiole, le résultat exprimé en coups/minute (cpm) est transformé en fonction du poids de prélèvement en cpm/mg et l'inhibition (ou l'augmentation) de la synthèse des lipides est donnée par la variation % (A%) de l'incorporation en cpm/mg entre l'oreille témoin et l'oreille "traitée".
La moyenne des A% est effectuée et la valeur statistique des résultats est déterminée par le calcul du coefficient "t" de Student.

The test system of assay [2] is organes du flanc. Put plainly: Local antiseborrheic activity (testosterone propionate-stimulated hamster flank organ, lipogenesis from 14C-glucose). In kind it is in vivo, hamsters femelles Syrien doré. Conditions: topical, dose de 2000 µg par jour. On the procedure: Des hamsters femelles Syrien doré, d'un poids moyen de 110 g, sont tondus et rasés au niveau des organes du flanc qui se présentent sous l'aspect d'une tache sombre de 2 mm de diamètre environ, de part et d'autre de la colonne vertébrale. Sur un des organes, 1,25 µg de testostérone propionate est appliqué journellement sous un volume de 10 µl d'acétone, l'autre organe recevent la même quantité de testostérone associée au produit à étudier. Le traitement s'effectue 5 jours/7 jours pendant 21 jours.
A la fin de cette période, les animaux sont sacrifiés au chloroforme et les diamètres des taches pigmentées sont measurés à l'aide d'une régie graduée. La peau est prélevée, fixée côte épiderme vers le bas, sur une planche en bois. Le muscle peaucier et le tissu adipeux sont alors éliminés par rabotage au Kératotome de Castroviejo (épaisseur de coupe réglée à 3 mm), puis une biopsie de 10 mm de diamètre au niveau de chaque organe est réalisée à l'aide d'un trépan. Cette biopsie est débitée en carrés de 1 mm^2, puis pesée (±0,1 mg).
Le reste de manipulation: incubation, saponification, extraction, est identique à celui effectué dans le test de lipogénèse in vitro ci-dessus.

Regarding `CCCCCCCCCc1ccc(OCCOCCOCCOCCOCCOCCO)cc1` [40 124, nonyl-4 phénoxy-17 pentaoxa-3,6,9,12,15 heptadécanol-1], in assay [1], the inhibition at 0.01 % was 55%, the inhibition at 0.001 % amounted to 6%, the inhibition at 0.0025 % was 31% and the inhibition at 0.005 % is 42%.

With `CC(C)(C)CC(C)(C)c1ccc(OCCOCCOCCOCCOCCOCCO)cc1` [40 181], in assay [1], the inhibition at 0.01 % is 67%, the inhibition at 0.001 % is 4%, the inhibition at 0.0025 % was 5% and the inhibition at 0.005 % turned out to be 42%.

Take `CC(C)(C)CC(C)(C)c1ccc(OCCOCCOCCOCCOCCOCCOCCOCCOCCOCCOCCOCCO)cc1` [40 182]: in assay [1], the inhibition at 0.0005 % came to 19%, the inhibition at 0.001 % stood at 41%, the inhibition at 0.0025 % is 69% and the inhibition at 0.005 % worked out at 89%.

In the case of `CCCCCCCCCc1ccc(OCCOCCOCCOCCOCCOCCOCCOCCOCCOCCOCCOCCO)cc1` [compound 7886], the inhibition at 0.00025 % in assay [1] (concentration 0,00025 %) amounted to 6%. Also, in assay [1], the inhibition at 0.0005 % worked out at 33%, the inhibition at 0.001 % was determined as 51% and the inhibition at 0.005 % turned out to be 84%. For the same compound, the inhibition at 0.025 % in assay [1] (concentration 0,025 %) amounted to 71%. Besides, the “inhibition de la lipogenèse sébacée par rapport au témoin” value in assay [2] worked out at 100%.

As for `CCCCCCCCCc1ccc(OCCOCCOCCOCCOCCOCCOCCOCCOCCO)cc1` [compound 7948], in assay [1], the inhibition at 0.01 % worked out at 81%, the inhibition at 0.001 % came to 10%, the inhibition at 0.0025 % stood at 31% and the inhibition at 0.005 % worked out at 61%.
